From patent US20170008928A1, “NOVEL PEPTIDES AND PEPTIDE DERIVATIVES AND USES THEREOF” (Novo Nordisk A/S, priority 2015, published 2017)
Read-outs that look alike come from different tables or passages of the source. Starred links: 1 amine or outer side, 2 acyl side, 3 side chain; linkers in the order of their positions; H or OH if unused. Non-standard residues stand in square brackets, D forms with d. Residues, ends and D or L forms follow the SMILES beside them. *: point of attachment. Phe(4-CH2SO3H) = N[C@@H](Cc1ccc(CS(=O)(=O)O)cc1)C(=O)O; sY = N[C@@H](Cc1ccc(OS(=O)(=O)O)cc1)C(=O)O; C18 diacid = O=C(O)CCCCCCCCCCCCCCCCC(=O)*; C16 diacid = O=C(O)CCCCCCCCCCCCCCC(=O)*; γGlu = O=C(O)[C@H](CCC(=O)[*:2])N[*:1]; βAsp = O=C(O)[C@H](CC(=O)[*:2])N[*:1]; NMeF = CN[C@@H](Cc1ccccc1)C(=O)O; dNMeD = CN[C@H](CC(=O)O)C(=O)O; Nle = CCCC[C@H](N)C(=O)O; AEEA = NCCOCCOCC(=O)O

Tests used:
[1] = target: T1, human cholecystokinin-1 receptor (CCK-1R) (Homo sapiens, UniProt P32238); assay: In vitro potency on CCK-1R, whole cell functional assay (IP1 accumulation, IP-One HTRF); type: cell-based
T1 construct: host or cells: 1321-N1 cells
T1 sequence (P32238 1-428): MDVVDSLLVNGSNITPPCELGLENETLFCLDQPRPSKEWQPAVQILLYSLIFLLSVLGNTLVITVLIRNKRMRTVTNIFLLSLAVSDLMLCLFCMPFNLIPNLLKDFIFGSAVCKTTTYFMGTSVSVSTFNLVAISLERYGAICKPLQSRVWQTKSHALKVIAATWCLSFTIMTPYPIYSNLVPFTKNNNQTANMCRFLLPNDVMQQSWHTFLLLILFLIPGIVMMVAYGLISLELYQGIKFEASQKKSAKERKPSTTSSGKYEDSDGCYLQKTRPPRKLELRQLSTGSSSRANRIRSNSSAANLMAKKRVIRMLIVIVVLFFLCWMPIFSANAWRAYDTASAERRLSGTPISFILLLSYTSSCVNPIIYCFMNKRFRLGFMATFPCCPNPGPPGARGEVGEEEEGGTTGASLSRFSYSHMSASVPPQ

[2] = target: T2, human cholecystokinin-2 receptor (CCK-2R) (Homo sapiens, UniProt P32239); assay: In vitro potency on CCK-2R, whole cell functional assay (IP1 accumulation, IP-One HTRF); type: cell-based
T2 construct: host or cells: 1321-N1 cells (plasma membranes prepared by Evotec AG Hamburg)
T2 sequence (P32239 1-447): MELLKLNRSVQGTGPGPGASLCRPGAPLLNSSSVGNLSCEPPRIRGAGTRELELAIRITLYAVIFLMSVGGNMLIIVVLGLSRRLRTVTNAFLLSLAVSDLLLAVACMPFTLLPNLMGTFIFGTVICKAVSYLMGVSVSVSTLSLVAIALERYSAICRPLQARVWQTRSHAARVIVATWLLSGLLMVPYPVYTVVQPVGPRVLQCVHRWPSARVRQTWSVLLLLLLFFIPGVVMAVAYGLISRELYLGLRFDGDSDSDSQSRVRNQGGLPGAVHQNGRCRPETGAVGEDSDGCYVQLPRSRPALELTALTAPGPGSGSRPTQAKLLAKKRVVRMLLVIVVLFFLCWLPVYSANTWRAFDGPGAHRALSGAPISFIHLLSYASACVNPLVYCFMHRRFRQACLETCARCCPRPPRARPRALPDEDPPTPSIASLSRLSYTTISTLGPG

[3] = target: T1, human cholecystokinin-1 receptor (CCK-1R); assay: In vitro receptor binding to CCK-1R, SPA displacement of [125I]-CCK-8s from plasma membranes; conditions: for CCK-1R binding selectivity (IC50 (CCK-2R)/IC50 (CCK-1R)): ratio of binding IC50 values, >1 = preference for CCK-1R
Experimental: The in vitro binding affinity is a measure of the strength of attraction between a receptor and its ligand.
Displacement of radio ligand was measured as reduction in light emission from SPA beads.
The cells used in these assays were 1321-N1 cells stably expressing the CCK-1R or the CCK-2R (Perkin Elmer product numbers ES-530-A and ES-531-A, respectively see www.perkinelmer.com/Catalog/Product/ID/ES-530-A or -ES-531-A, respectively).
The cells were cultured in an incubator (95% RH (relative humidity), 5% (of standard atmospheric pressure) CO2, 37° C.) in cell culture medium (DMEM (Lonza catalogue BE-12-604F/U1), with 10% (v/v) Foetal Calf Serum (FCS, Gibco catalogue 16140-071), 1% (w/w) Sodium pyruvate (Gibco catalogue 11360-039), 500 μg/ml Geneticin® (G418) (Gibco catalogue 10131-027), 25 μg/ml Zeocin™ (Invitrogen catalogue R250-05), 1% (w/w) Pen/Strep (Gibco catalogue 15140-122)).
Plasma membranes were prepared by Evotec AG Hamburg by use of the ParrBomb (#4635, Parr Instrument Company). Cells were lysed with a lysis buffer (50 mM Tris, 2.5 mM EDTA, pH7) with added protease inhibitors (Complete Proteaseinhibitors EDTA-free (#05056489001, Roche), 1 tablet per 50 mL lysis buffer). The membrane fraction was separated by centrifugation. First, the cell lysate was centrifuged at 1000×g for 10 minutes at 4° C. The pellet was discarded and the supernatant was then centrifuged at 100.000×g for 30 minutes at 4° C. The supernatant was discarded and the pellet was re-suspended in 1 ml/5×10^8 cells ice cold membrane buffer (50 mM Tris, 320 mM Sucrose and Complete Proteaseinhibitors EDTA-free (#05056489001, Roche); pH7.4) and homogenised with dounce homogeniser. The protein concentration was determined using the Pierce™ BCA Protein Assay Kit according to kit manual, and the membrane preparation was adjust to the desired protein concentration with membrane buffer and aliquoted into pre-cooled tubes, snap-frozen in liquid nitrogen, and stored at −80° C.
CCK receptor binding assays were performed in 96-well Optiplates (Cat #6005290, PerkinElmer, Waltham, Mass., USA) in a total volume of 200 μl per well. CCK derivatives in 80% DMSO stock solutions of 800 μM were serially diluted […] in assay buffer (50 mM Tris/HCl, 4.5 mM MgCl2, […], 0.02% Tween 20, 0.25% ovalbumin, 0.1% pluronic F-68, pH 7.4) to final assay concentrations ranging from 10^−5 M (ten μM) to 10^−12 M (one pM).
Fifty μl of reference or test compounds were added to the Optiplates (using technical duplicates, i.e. two wells of each sample, one data point being the average of two wells), followed by addition of 150 μl of the mixture of SPA bead, radio ligand, and plasma membrane. The plates were sealed and incubated in the dark at +22° C. for 2 hours on a IKA MTS plate shaker (IKA-Werke D-79219 Staufen) set at 300 rpm and thereafter centrifuged at 1500 rpm for 10 minutes in a Heraeus Multifuge 3s centrifuge. SPA bead light emission was measured in a TopCount NXT (PerkinElmer) for 2 min/well after a delay of 60 min.
As a measure of compound affinity, calculations were performed in order to determine the half maximal inhibitory concentration (the IC50 value).
The data from the TopCounter were given as counts per minute (CPM). The CPM was plotted as a function of the concentration of compound. Dose-response curves were obtained, and IC50 values were calculated, by a nonlinear three-parameter logistic equation (log(agonist) vs response) with hillslope=−1, and shared top and bottom using the software programme GraphPad Prism v 6.0 (Graph Pad software, La Jolla, Calif., USA). The highest dose tested was 10^−5 M (1×10^7 pM).
The preference of a specific compound for the CCK-1 receptor, or the CCK-1R selectivity, may be defined as IC50 (CCK-2R)/IC50 (CCK-1R).
A minimum of three biological replicates was measured for each test compound on separate assay plates.

[4] = target: T2, human cholecystokinin-2 receptor (CCK-2R); assay: In vitro receptor binding to CCK-2R, SPA displacement of [125I]-CCK-8s from plasma membranes
[5] = 1321-N1 cells stably expressing CCK-1R, IP1 accumulation, average of min. three replicates, read-out: EC50 (CCK-1R)
[6] = ratio of functional EC50 values, >1 = preference for CCK-1R

SMILES | EC50 [1] [nM] | EC50 [2] [nM] | IC50 [3] [nM] | IC50 [4] [µM] | EC50 [1, 5] [nM] | EC50 ([2]; 1321-N1 cells stably expressing CCK-2R, IP1 accumulation, highest dose tested 1×10^6 pM, read-out: EC50 (CCK-2R)) [nM] | IC50 ([3]; displacement of [125I]-CCK-8s, plasma membranes of 1321-N1 cells expressing CCK-1R, read-out: IC50 (CCK-1R)) [nM] | CCK-1R binding selectivity (IC50 (CCK-2R)/IC50 (CCK-1R)) [3] | CCK-1R selectivity (EC50 (CCK-2R)/EC50 (CCK-1R)) [1] | CCK-1R selectivity (EC50 (CCK-2R)/EC50 (CCK-1R)) [1, 6]
CCCC[C@H](NC(=O)[C@H](Cc1c[nH]c2ccccc12)NC(=O)CNC(=O)[C@H](CC(C)C)NC(=O)[C@H](Cc1ccc(CS(=O)(=O)O)cc1)NC(=O)[C@H](CC(=O)O)NC(=O)COCCOCCNC(=O)COCCOCCNC(=O)CC[C@H](NC(=O)CCCCCCCCCCCCCCC(=O)O)C(=O)O)C(=O)N(C)[C@H](CC(=O)O)C(=O)N(C)[C@@H](Cc1ccccc1)C(N)=O [Example 6, 2-[2-[2-[[2-[2-[2-[[(4S)-4-Carboxy-4-(15-carboxypentadecanoylamino)butanoyl]amino]ethoxy]ethoxy]acetyl]amino]ethoxy]ethoxy]acetyl-Asp-Phe(4-sulfomethyl)-Leu-Gly-Trp-Nle-DMeAsp-MePhe-amide] ({C16 diacid-γGlu-AEEA-AEEA}-D[Phe(4-CH2SO3H)]LGW[Nle][dNMeD][NMeF]-NH2) | 0.2 | > 1000 | 0.2 | > 10 | – | – | – | – | – | –
CCCC[C@H](NC(=O)[C@H](Cc1ccc(CS(=O)(=O)O)cc1)NC(=O)C[C@H](N)C(=O)O)C(=O)NCC(=O)N[C@@H](Cc1c[nH]c2ccccc12)C(=O)N[C@@H](CCCC)C(=O)N(C)[C@H](CC(=O)O)C(=O)N(C)[C@@H](Cc1ccccc1)C(N)=O [Example 75, bAsp-Phe(4-sulfomethyl)-Nle-Gly-Trp-Nle-DMeAsp-MePhe-amide] (βAsp-[Phe(4-CH2SO3H)][Nle]GW[Nle][dNMeD][NMeF]-NH2) | – | – | – | – | 0.19 | > 1000 | 0.049 | 59000 | – | –
CC(C)C[C@H](NC(=O)[C@H](Cc1ccc(OS(=O)(=O)O)cc1)NC(=O)[C@H](CC(=O)O)NC(=O)COCCOCCNC(=O)COCCOCCNC(=O)CC[C@H](NC(=O)CCCCCCCCCCCCCCCCC(=O)O)C(=O)O)C(=O)NCC(=O)N[C@@H](Cc1c[nH]c2ccccc12)C(=O)N[C@H](C(=O)N(C)[C@H](CC(=O)O)C(=O)N(C)[C@@H](Cc1ccccc1)C(N)=O)C(C)C [Example 14, 2-[2-[2-[[2-[2-[2-[[(4S)-4-Carboxy-4-(17-carboxyheptadecanoylamino)butanoyl]amino]ethoxy]ethoxy]acetyl]amino]ethoxy]ethoxy]acetyl-Asp-sTyr-Leu-Gly-Trp-Val-DMeAsp-MePhe-amide] ({C18 diacid-γGlu-AEEA-AEEA}-D[sY]LGWV[dNMeD][NMeF]-NH2) | 0.14 | 730 | 0.31 | 6.4 | – | – | – | 21000 | 5100 | –
CCCC[C@H](NC(=O)[C@H](Cc1c[nH]c2ccccc12)NC(=O)CNC(=O)[C@H](CO)NC(=O)[C@H](Cc1ccc(OS(=O)(=O)O)cc1)NC(=O)[C@H](CC(=O)O)NC(=O)COCCOCCNC(=O)COCCOCCNC(=O)CC[C@H](NC(=O)CCCCCCCCCCCCCCCCC(=O)O)C(=O)O)C(=O)N(C)[C@H](CC(=O)O)C(=O)N(C)[C@@H](Cc1ccccc1)C(N)=O [Example 45, 2-[2-[2-[[2-[2-[2-[[(4S)-4-Carboxy-4-(17-carboxyheptadecanoylamino)butanoyl]amino]ethoxy]ethoxy]acetyl]amino]ethoxy]ethoxy]acetyl-Asp-sTyr-Ser-Gly-Trp-Nle-DMeAsp-MePhe-amide] ({C18 diacid-γGlu-AEEA-AEEA}-D[sY]SGW[Nle][dNMeD][NMeF]-NH2) | – | – | – | – | 0.31 | – | – | 82000 | – | 3000
CCCC[C@H](NC(=O)[C@H](Cc1c[nH]c2ccccc12)NC(=O)CNC(=O)[C@H](C)NC(=O)[C@H](Cc1ccc(OS(=O)(=O)O)cc1)NC(=O)[C@H](CC(=O)O)NC(=O)COCCOCCNC(=O)COCCOCCNC(=O)CC[C@H](NC(=O)CCCCCCCCCCCCCCCCC(=O)O)C(=O)O)C(=O)N(C)[C@H](CC(=O)O)C(=O)N(C)[C@@H](Cc1ccccc1)C(N)=O [Example 46, 2-[2-[2-[[2-[2-[2-[[(4S)-4-Carboxy-4-(17-carboxyheptadecanoylamino)butanoyl]amino]ethoxy]ethoxy]acetyl]amino]ethoxy]ethoxy]acetyl-Asp-sTyr-Ala-Gly-Trp-Nle-DMeAsp-MePhe-amide] ({C18 diacid-γGlu-AEEA-AEEA}-D[sY]AGW[Nle][dNMeD][NMeF]-NH2) | – | – | – | – | 0.22 | – | – | 4100 | – | 440
CCCC[C@H](NC(=O)[C@H](Cc1c[nH]c2ccccc12)NC(=O)CNC(=O)[C@H](Cc1ccccc1)NC(=O)[C@H](Cc1ccc(OS(=O)(=O)O)cc1)NC(=O)[C@H](CC(=O)O)NC(=O)COCCOCCNC(=O)COCCOCCNC(=O)CC[C@H](NC(=O)CCCCCCCCCCCCCCCCC(=O)O)C(=O)O)C(=O)N(C)[C@H](CC(=O)O)C(=O)N(C)[C@@H](Cc1ccccc1)C(N)=O [Example 44, 2-[2-[2-[[2-[2-[2-[[(4S)-4-Carboxy-4-(17-carboxyheptadecanoylamino)butanoyl]amino]ethoxy]ethoxy]acetyl]amino]ethoxy]ethoxy]acetyl-Asp-sTyr-Phe-Gly-Trp-Nle-DMeAsp-MePhe-amide] ({C18 diacid-γGlu-AEEA-AEEA}-D[sY]FGW[Nle][dNMeD][NMeF]-NH2) | – | – | – | – | – | – | – | 87000 | – | 960
